Data on 11 compounds can be found in patent publication US7851637B2, “Compounds and methods for inhibiting the interaction of BCL proteins with binding partners” (Infinity Pharmaceuticals, Inc., priority 2004, dated 2010).

Like-named read-outs stand apart in the source and are kept apart here.

Assay [1] deals with RL Human Follicular Lymphoma Cell Line. In words: Alamar blue cytotoxicity assay in RL cells. It is filed as cell-based. The settings on record: 72 h incubation, read-out: Bcl RL Alamar Blue IC50. The gist of the method: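 Compounds tested at 29 uM to 0.013 uM final (0.3% DMSO) on 30,000 RL cells per well. After 72 h at 37 C, 5% CO2, viability read with Alamar blue.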
(In general: Resazurin is reduced to fluorescent resorufin, in cell work by metabolically active cells.)

The target of assay [2] is Bcl-xL (Homo sapiens, UniProt Q07817). In words: Bcl-xL binding affinity analysis (fluorescence polarization binding assay). Also on record: scale not given here. The gist of the method: (§1)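 Sensitive, quantitative cell-free test: compound incubated with protein, then polarization of emitted fluorescence recorded to gauge affinity.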
In general terms: Polarisation of emitted light reports the rotation of a fluorescent probe.

In assay [3] the target is Bcl-2 (Homo sapiens, UniProt P10415). As to the kind of experiment: Bcl-2 binding affinity analysis (fluorescence polarization binding assay). The method in brief:
as §1

The subject of assay [4] is Human Pancreatic Cancer Cell Line Panc1. In words: Cell death assay (propidium iodide/Hoechst) in Panc1 cells with or without camptothecin. In kind it is cell-based. The note with it: 72 hours, % cell death by propidium iodide/Hoechst. The method in brief:
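Panc1 cells, 10,000/well, exposed 72 h at 37 C to compound (29 uM to 0.13 uM, 0.3% DMSO) with or without 3 uM camptothecin. Propidium iodide and Hoechst staining imaged by fluorescence microscopy; % cell death = PI-stained/Hoechst-stained cells × 100.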

The mark [5] stands for this setting: Homo sapiens, PANC-1, without camptothecin, read-out: Panc1 − Cpt IC50.
[6] abbreviates: with 3 uM Camptothecin, read-out: Panc1 + Cpt IC50.

Bcl-xL, sequence (Q07817 whole entry): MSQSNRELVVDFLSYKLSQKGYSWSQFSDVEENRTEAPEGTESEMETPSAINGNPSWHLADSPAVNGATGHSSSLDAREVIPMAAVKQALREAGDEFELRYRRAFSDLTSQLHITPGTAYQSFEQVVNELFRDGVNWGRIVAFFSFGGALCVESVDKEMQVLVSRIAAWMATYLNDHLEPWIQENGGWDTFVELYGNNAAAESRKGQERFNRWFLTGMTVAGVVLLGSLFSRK
Bcl-2, sequence (P10415 whole entry): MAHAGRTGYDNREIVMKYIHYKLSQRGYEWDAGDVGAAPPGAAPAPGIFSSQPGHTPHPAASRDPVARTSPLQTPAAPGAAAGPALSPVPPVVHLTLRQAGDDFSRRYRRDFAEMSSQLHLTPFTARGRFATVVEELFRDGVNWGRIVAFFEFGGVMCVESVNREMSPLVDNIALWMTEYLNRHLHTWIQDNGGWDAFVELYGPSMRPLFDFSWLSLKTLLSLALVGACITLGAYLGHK

In the case of `CC(C)CC(CN(C)C)N(Cc1cccc(CN2OC(CO)C(C(C)O)C2C(=O)NC2CC3CC(C2C)C3(C)C)c1)Cc1ccccc1OC(F)(F)F` (stereo not shown) [Compound 320], the values for the IC50 in assay [1] (Homo sapiens), in assay [4] (setting [5]) and in assay [4] (setting [6]) were less than 2000 nM, greater than 2500 nM and 1800 to 2500 nM, respectively. Besides, the “Bcl-XL binding affinity Ki” value in assay [2] was “♯”. Besides, the Ki in assay [3] is less than 800 nM.
In the case of `CC(C)CC(CN(C)C)N(Cc1cccc(CN2OC(CO)C(C(C)O)C2C(=O)NC2CC3CC(C2C)C3(C)C)c1)Cc1ccccc1C#N` (stereo not shown) [Compound 314], the 50% inhibitory concentration (IC50) in assay [1] (Homo sapiens) was less than 2000 nM; in assay [4] (setting [5]), greater than 2500 nM; in assay [4] (setting [6]), greater than 2500 nM. The “Bcl-XL binding affinity Ki” value in assay [2] is “♯”. This compound registered a Ki in assay [3] of less than 800 nM.
For the compound `CC(C)CC(CN(C)C)N(Cc1cccc(CN2OC(CO)C(C(C)O)C2C(=O)NC2CC3CC(C2C)C3(C)C)c1)Cc1ccccc1[N+](=O)[O-]` (stereo not shown) [Compound 316], the IC50 in assay [1] (Homo sapiens) is greater than 5000 nM; in assay [4] (setting [5]) it was greater than 2500 nM; in assay [4] (setting [6]), greater than 2500 nM. Besides, in assay [2], the “Bcl-XL binding affinity Ki” value is reported as “♯”. Further, the Ki in assay [3] is less than 800 nM.
Take `CC(O)C1C(CO)ON(Cc2cccc(CN(C)C(CC3CCCCC3)CN(C)C)c2)C1C(=O)NC1CC2CC(C1C)C2(C)C` (stereo not shown) [Compound 442]: the values for the IC50 in assay [1] (Homo sapiens), in assay [4] (setting [5]) and in assay [4] (setting [6]) were 2000 to 5000 nM, greater than 2500 nM and greater than 2500 nM, respectively. Also, the “Bcl-XL binding affinity Ki” value in assay [2] is “♯”. Also, the Ki in assay [3] was less than 800 nM.
Take `COc1c(CN2O[C@@H](CO)[C@@H]([C@H](C)O)[C@H]2C(=O)N[C@H]2C[C@H]3C[C@@H]([C@@H]2C)C3(C)C)cccc1-c1cccc(C(=O)N[C@@H](CN(C)C)C(C)C)c1` [Compound 484]: the IC50 is 2000 to 5000 nM in assay [1] (Homo sapiens), greater than 2500 nM in assay [4] (setting [5]) and greater than 2500 nM in assay [4] (setting [6]). The “Bcl-XL binding affinity Ki” value in assay [2] is listed as “♯”. The same compound displayed a Ki in assay [3] of less than 800 nM.
For the compound `CC(C)CC(CN(C)C)N(Cc1ccccc1)Cc1cccc(CN2OC(CO)C(C(C)O)C2C(=O)NC2CC3CC(C2C)C3(C)C)c1` (stereo not shown) [Compound 311], the IC50 in assay [1] was 2000 to 5000 nM; in assay [4] (setting [5]), greater than 2500 nM; in assay [4] (setting [6]), 1800 to 2500 nM. Also, the “Bcl-XL binding affinity Ki” value in assay [2] is “♯”. In assay [3], this compound gave a Ki of less than 800 nM.
`CC(C)CC(CN(C)C)N(Cc1cccc(CN2OC(CO)C(C(C)O)C2C(=O)NC2CC3CC(C2C)C3(C)C)c1)Cc1c(F)cccc1C(F)(F)F` (stereo not shown) [Compound 339]: the IC50 in assay [1] (Homo sapiens) is less than 2000 nM; in assay [4] (setting [5]), greater than 2500 nM; in assay [4] (setting [6]) it was greater than 2500 nM. In addition, the “Bcl-XL binding affinity Ki” value in assay [2] was “♯”. Further, the Ki in assay [3] was less than 800 nM.
For `CC(O)C1C(CO)ON(Cc2cccc(CN(CCN(C)C)Cc3cccc(-c4ccccc4)c3)c2)C1C(=O)NC1CC2CC(C1C)C2(C)C` (stereo not shown) [Compound 402], the IC50 in assay [1] (Homo sapiens) was less than 2000 nM; in assay [4] (setting [5]), greater than 2500 nM; in assay [4] (setting [6]) it was greater than 2500 nM. In addition, the “Bcl-XL binding affinity Ki” value in assay [2] was “♯”. In assay [3], the Ki is less than 800 nM.
As to `CC(O)C1C(CO)ON(Cc2cccc(CN(CCN(C)C)Cc3nccs3)c2)C1C(=O)NC1CC2CC(C1C)C2(C)C` (stereo not shown) [Compound 395], the IC50 in assay [1] (Homo sapiens) is greater than 5000 nM; in assay [4] (setting [5]), greater than 2500 nM; in assay [4] (setting [6]) it was greater than 2500 nM. Also, the “Bcl-XL binding affinity Ki” value in assay [2] was “♯”. Moreover, the Ki in assay [3] was less than 800 nM.
`CC(O)C1C(CO)ON(Cc2cccc(CN(CCN(C)C)CC3CCOC3)c2)C1C(=O)NC1CC2CC(C1C)C2(C)C` (stereo not shown) [Compound 391]: the values for the IC50 in assay [1] (Homo sapiens), in assay [4] (setting [5]) and in assay [4] (setting [6]) were greater than 5000 nM, greater than 2500 nM and greater than 2500 nM, respectively. For the same compound, in assay [2], the “Bcl-XL binding affinity Ki” value is “♯”. In addition, the Ki in assay [3] is less than 800 nM.
As to `COc1c(CN2O[C@@H](CO)[C@@H]([C@H](C)O)[C@H]2C(=O)N[C@H]2C[C@H]3C[C@@H]([C@@H]2C)C3(C)C)cccc1-c1cccc(C(=O)N[C@H](CC(C)C)CN2CCCCCC2)c1` [Compound 483], the values for the IC50 in assay [1] (Homo sapiens), in assay [4] (setting [5]) and in assay [4] (setting [6]) were 2000 to 5000 nM, greater than 2500 nM and 1800 to 2500 nM, respectively. In assay [2], the “Bcl-XL binding affinity Ki” value was “♯”. This compound also had a Ki in assay [3] of less than 800 nM.

What is called IC50 is the concentration that inhibits the measured activity by half. As usually defined, the Ki is the equilibrium dissociation constant of an inhibitor or competing ligand from its target.
